From patent publication US20240425464A1, “Substituted Monohydrazides as Potent Antifungal Agents” (University of Kentucky Research Foundation, priority 2023, published 2024)
Converted amounts (≈) assume the structure as drawn. Like-named read-outs stand apart in the source and are kept apart here.

Tests used:
C. auris AR Bank #381 = test: MIC determination by in vitro antifungal assay; assay type: cell-based, Candida auris; conditions: C. auris AR Bank #381
Procedure, shortened: (§1)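 Inocula were prepared by adjusting actively growing yeast cultures in RPMI 1640 to an OD600 of 0.12, about 1×10^6 CFU/mL, and diluting this suspension 1:100. Cultivation was at 35° C in MOPS-buffered (0.165 M, pH 7.0) RPMI 1640.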

C. auris AR Bank #382 = test: MIC determination by in vitro antifungal assay; assay type: cell-based, Candida auris; conditions: C. auris AR Bank #382
Procedure, shortened: as §1

C. auris AR Bank #383 = test: MIC determination by in vitro antifungal assay; assay type: cell-based, Candida auris; conditions: C. auris AR Bank #383
Procedure, shortened: as §1

C. auris AR Bank #385 = test: MIC determination by in vitro antifungal assay; assay type: cell-based, Candida auris; conditions: C. auris AR Bank #385
Procedure, shortened: as §1

C. auris AR Bank #386 = test: MIC determination by in vitro antifungal assay; assay type: cell-based, Candida auris; conditions: C. auris AR Bank #386
Procedure, shortened: as §1

C. auris AR Bank #387 = test: MIC determination by in vitro antifungal assay; assay type: cell-based, Candida auris; conditions: C. auris AR Bank #387
Procedure, shortened: as §1

C. auris AR Bank #388 = test: MIC determination by in vitro antifungal assay; assay type: cell-based, Candida auris; conditions: C. auris AR Bank #388
Procedure, shortened: as §1

C. auris AR Bank #389 = test: MIC determination by in vitro antifungal assay; assay type: cell-based, Candida auris; conditions: C. auris AR Bank #389
Procedure, shortened: as §1

[1] = test system: Candida duobushaemulonii AR Bank #391; test: MIC determination by in vitro antifungal assay; assay type: cell-based
Protocol: (§2) The antifungal agent amphotericin B (AmB) was purchased from VWR (Radnor PA, USA). AmB was dissolved in DMSO at a final concentration of 5 mg/mL and was stored at −20° C., protected from light. Candida albicans American Type Culture Collection (ATCC) 10231 (strain A), C. albicans ATCC 64124 (B), and C. albicans ATCC MYA-2876 (C) were obtained from Utah State University. C. albicans ATCC 90819 (D), C. albicans ATCC MYA-2310 (E), C. albicans ATCC MYA-1237 (F), C. albicans ATCC MYA-1003 (G), Candida glabrata ATCC 2001 (H), Candida krusei ATCC 6258 (I), Candida parapsilosis ATCC 22019 (J), Cryptococcus neoformans ATCC MYA-895 (M), Aspergillus terreus ATCC MYA-3633 (N), and Aspergillus flavus ATCC MYA-3631 (0) were obtained from the American Type Culture Collection (ATCC; Manassas, VA, USA). Aspergillus nidulans ATCC 38163 (P) was obtained from University of Kentucky. Clinically derived Aspergillus fumigatus NRRL 163 (Q), A. fumigatus NRRL 5109 (R), and A. fumigatus NRRL 6113 (S) were obtained from Northern Regional Research Laboratory (NRRL). Candida auris 384 (K), C. auris 390 (L), and fungal strains 381-400 (including 10 C. auris (AR Bank #381-390), 3 Candida duobushaemulonii (AR Bank #391, AR Bank #392, and AR Bank #394), 2 Candida haemulonii (AR Bank #393 and AR Bank #395), 1 Kodameae ohmeri (AR Bank #396), 1 C. krusei (AR Bank #397), 1 Candida lusitaniae (AR Bank #398), and 2 Saccharomyces cerevisiae strains (AR Bank #399 and AR Bank #400)) were part of a larger fungal library from the AR Bank maintained by the Centers for Disease Control and Prevention (CDC; Atlanta, GA, USA). Filamentous fungi and yeasts were cultivated at 35° C. in RPMI 1640 medium (with L-glutamine, without sodium bicarbonate, Sigma-Aldrich, St. Louis, MO) buffered to a pH of 7.0 with 0.165 M morpholinepropanesulfonic acid (MOPS) buffer (Sigma-Aldrich). For cytotoxicity assays, HepG2 and the mouse macrophage cell line J774A.1 were obtained from University of Kentucky. The human embryonic kidney cell line, HEK-293, was bought from the ATCC. Mammalian cells were grown in Dulbecco's Modified Eagle's Medium (DMEM) (from VWR) with 10% fetal bovine serum (FBS) (from VWR) and 1% Pen/Strep (from ATCC). Cell lines were cultured at 37° C. with 5% CO2 and passaged by trypsinization with 0.05% trypsin: 0.53 mM EDTA (from Sigma-Aldrich).
(§3) From the actively growing yeast culture, 100 µL were then transferred to 900 μL of RPMI 1640 medium and re-adjusted to achieve OD600 of 0.12 (˜1×10^6 CFU/mL). The cell suspension was further diluted to achieve 1:100 in RPMI 1640 medium.

[2] = test system: Candida duobushaemulonii AR Bank #392; test: MIC determination by in vitro antifungal assay; assay type: cell-based
Protocol: as §2, §3

[3] = test system: Candida duobushaemulonii AR Bank #394; test: MIC determination by in vitro antifungal assay; assay type: cell-based
Protocol: as §2, §3

[4] = test system: Candida haemulonii AR Bank #393; test: MIC determination by in vitro antifungal assay; assay type: cell-based
Protocol: as §2, §3

[5] = test system: Candida haemulonii AR Bank #395; test: MIC determination by in vitro antifungal assay; assay type: cell-based
Protocol: as §2, §3

[6] = test system: Candida krusei AR Bank #397; test: MIC determination by in vitro antifungal assay; assay type: cell-based; conditions: Candida strain AR Bank #397
Protocol: as §2, §3

[7] = test system: Candida lusitaniae AR Bank #398; test: MIC determination by in vitro antifungal assay; assay type: cell-based; conditions: Candida strain AR Bank #398
Protocol: as §2, §3

[8] = test system: Kodameae ohmeri AR Bank #396; test: MIC determination by in vitro antifungal assay; assay type: cell-based; conditions: strain AR Bank #396
Protocol: as §2, §3

[9] = test system: Saccharomyces cerevisiae AR Bank #399; test: MIC determination by in vitro antifungal assay; assay type: cell-based
Protocol: as §2, §3

[10] = test system: panel of ten C. auris strains (AR Bank #381-390); test: MIC determination, summary over the C. auris panel; assay type: cell-based, Candida auris; conditions: Candidozyma auris; against all ten C. auris strains tested (AR Bank #381-390)
Procedure, shortened: as §1

[11] = test system: ten other fungal strains (AR Bank #391-400); test: MIC determination, summary over ten additional fungal strains; assay type: cell-based; conditions: read-out: MIC range
Protocol: as §2, §3

[12] = Candidozyma auris, read-out: MIC
[13] = Candidozyma duobushaemuli, read-out: MIC
[14] = Candidozyma haemuli, read-out: MIC
[15] = Pichia kudriavzevii, read-out: MIC
[16] = Clavispora lusitaniae, read-out: MIC

Structure (SMILES)	MIC (C. auris AR Bank #381) [μg/mL^−1]	MIC (C. auris AR Bank #382) [μg/mL^−1]	MIC (C. auris AR Bank #383) [μg/mL^−1]	MIC (C. auris AR Bank #385) [μg/mL^−1]	MIC (C. auris AR Bank #386) [μg/mL^−1]	MIC (C. auris AR Bank #387) [μg/mL^−1]	MIC (C. auris AR Bank #388) [μg/mL^−1]	MIC (C. auris AR Bank #389) [μg/mL^−1]	MIC [1] [μg/mL^−1]	MIC [2] [μg/mL^−1]	MIC [3] [μg/mL^−1]	MIC [4] [μg/mL^−1]	MIC [5] [μg/mL^−1]	MIC [6] [μg/mL^−1]	MIC [7] [μg/mL^−1]	MIC [8] [μg/mL^−1]	MIC [9] [μg/mL^−1]	MIC (C. auris AR Bank #381; [12]) [µg/mL]	MIC (C. auris AR Bank #382; [12]) [µg/mL]	MIC (C. auris AR Bank #383; [12]) [µg/mL]	further results
O=C(NNc1cccc(Cl)c1)c1ccccn1 [Compound 2b]	0.98	0.49	0.49	0.49	0.24	0.49	0.49	0.49	0.24	0.24	0.12	0.12	≤0.06	0.12	0.98	0.12	0.98	–	–	–	–
COc1cccc(NNC(=O)c2ccccn2)c1 [Compound 2c]	3.9	0.98	0.98	3.9	0.49	0.49	3.9	0.49	1.95	1.95	0.98	0.49	0.49	0.49	1.95	0.49	7.8	–	–	–	–
O=C(NNc1ccc(F)cc1)c1ccccn1 [Compound 2d]	–	–	–	–	–	–	–	–	–	–	–	–	–	–	–	–	–	0.98 (≈ 4.24 µM)	1.95 (≈ 8.43 µM)	1.95 (≈ 8.43 µM)	MIC (C. auris AR Bank #385; [12]): 0.98 µg/mL (≈ 4.24 µM); MIC (C. auris AR Bank #386; [12]): 0.49 µg/mL (≈ 2.12 µM); MIC (C. auris AR Bank #387; [12]): 0.98 µg/mL (≈ 4.24 µM); MIC (C. auris AR Bank #388; [12]): 0.98 µg/mL (≈ 4.24 µM); MIC (C. auris AR Bank #389; [12]): 0.49 µg/mL (≈ 2.12 µM); MIC [1, 13]: 0.49 µg/mL (≈ 2.12 µM); MIC [2, 13]: 0.49 µg/mL (≈ 2.12 µM); MIC [3, 13]: 0.24 µg/mL (≈ 1.04 µM); MIC [4, 14]: 0.24 µg/mL (≈ 1.04 µM); MIC [5, 14]: 0.12 µg/mL (≈ 0.519 µM); MIC [6, 15]: 0.24 µg/mL (≈ 1.04 µM); MIC [7, 16]: 1.95 µg/mL (≈ 8.43 µM); MIC ([8]; read-out: MIC): 0.24 µg/mL (≈ 1.04 µM); MIC ([9]; read-out: MIC): 3.9 µg/mL (≈ 16.9 µM); MIC [10]: 0.12 to 7.8 µg/mL (≈ 0.519 to 33.7 µM); MIC [11]: 0.06 to 7.8 µg/mL (≈ 0.259 to 33.7 µM)
O=C(NNc1ccc(Cl)cc1)c1ccccn1 [Compound 2e]	1.95	3.9	1.95	1.95	0.98	1.95	1.95	0.98	0.98	0.98	0.49	0.49	0.12	0.24	0.98	0.24	0.98	–	–	–	–
COc1cccc(NNC(=O)c2cnccn2)c1 [Compound 9c]	–	–	–	–	–	–	–	–	–	–	–	–	–	–	–	–	–	1.95 (≈ 7.98 µM)	0.98 (≈ 4.01 µM)	1.95 (≈ 7.98 µM)	MIC (C. auris AR Bank #385; [12]): 7.8 µg/mL (≈ 31.9 µM); MIC (C. auris AR Bank #386; [12]): 0.49 µg/mL (≈ 2.01 µM); MIC (C. auris AR Bank #387; [12]): 0.98 µg/mL (≈ 4.01 µM); MIC (C. auris AR Bank #388; [12]): 3.9 µg/mL (≈ 16 µM); MIC (C. auris AR Bank #389; [12]): 0.98 µg/mL (≈ 4.01 µM); MIC [2, 13]: 0.98 µg/mL (≈ 4.01 µM); MIC [3, 13]: 1.95 µg/mL (≈ 7.98 µM); MIC [4, 14]: 0.49 µg/mL (≈ 2.01 µM); MIC [5, 14]: 0.49 µg/mL (≈ 2.01 µM); MIC [6, 15]: 0.49 µg/mL (≈ 2.01 µM); MIC [7, 16]: 1.95 µg/mL (≈ 7.98 µM); MIC ([8]; read-out: MIC): 0.49 µg/mL (≈ 2.01 µM); MIC ([9]; read-out: MIC): 7.8 µg/mL (≈ 31.9 µM); MIC [10]: 0.12 to 7.8 µg/mL (≈ 0.491 to 31.9 µM); MIC [11]: 0.06 to 7.8 µg/mL (≈ 0.246 to 31.9 µM)
O=C(NNc1ccc(Cl)cc1)c1cnccn1 [Compound 9e]	7.8	13.6	3.9	31.3	7.8	13.6	7.8	7.8	1.95	1.95	1.95	1.95	3.9	1.9	3.9	1.95	3.9	–	–	–	–
